Numbers after ± are expanded uncertainties.
Assay: wn = mass fraction of the nth substance listed
Settings: Liquid, Coaxial cylinder method

[Br-].[K+] [potassium bromide] + O
thermal conductivity [W/m/K]
Settings	100 kPa	2000 kPa	10000 kPa	40000 kPa
294.7 K, w1 = 0.1	0.578 ± 0.016	0.578 ± 0.016	0.582 ± 0.016	0.592 ± 0.017
295.7 K, w1 = 0.3	0.521 ± 0.015	0.521 ± 0.015	0.525 ± 0.015	0.532 ± 0.015
296.8 K, w1 = 0.2	0.553 ± 0.016	0.553 ± 0.016	0.557 ± 0.016	0.565 ± 0.016
320.9 K, w1 = 0.1	0.612 ± 0.017	0.612 ± 0.017	0.617 ± 0.017	0.628 ± 0.018
321.4 K, w1 = 0.3	0.554 ± 0.016	0.554 ± 0.016	0.559 ± 0.016	0.569 ± 0.016
325.4 K, w1 = 0.2	0.589 ± 0.017	0.589 ± 0.017	0.595 ± 0.017	0.602 ± 0.017
351.2 K, w1 = 0.2	0.616 ± 0.017	0.616 ± 0.017	0.62 ± 0.017	0.629 ± 0.018
354.8 K, w1 = 0.1	0.644 ± 0.018	0.644 ± 0.018	0.65 ± 0.018	0.662 ± 0.019
357.6 K, w1 = 0.3	0.588 ± 0.017	0.588 ± 0.017	0.591 ± 0.017	0.601 ± 0.017
381.3 K, w1 = 0.1	0.661 ± 0.019	0.661 ± 0.019	0.669 ± 0.019	0.682 ± 0.019
384.2 K, w1 = 0.3	0.601 ± 0.017	0.601 ± 0.017	0.605 ± 0.017	0.616 ± 0.018
387.6 K, w1 = 0.2	0.634 ± 0.018	0.634 ± 0.018	0.638 ± 0.018	0.647 ± 0.018
403.2 K, w1 = 0.1	0.661 ± 0.019	0.661 ± 0.019	0.667 ± 0.019	0.683 ± 0.02
406.2 K, w1 = 0.2	0.632 ± 0.018	0.632 ± 0.018	0.638 ± 0.018	0.648 ± 0.019
409.6 K, w1 = 0.3	0.6 ± 0.017	0.6 ± 0.017	0.606 ± 0.017	0.618 ± 0.018
425.9 K, w1 = 0.1	0.657 ± 0.018	0.657 ± 0.018	0.662 ± 0.019	0.681 ± 0.02
427.2 K, w1 = 0.3	0.598 ± 0.017	0.598 ± 0.017	0.604 ± 0.017	0.616 ± 0.018
431.2 K, w1 = 0.2	0.628 ± 0.018	0.628 ± 0.018	0.634 ± 0.018	0.646 ± 0.019
456.9 K, w1 = 0.2	0.616 ± 0.017	0.616 ± 0.017	0.623 ± 0.018	0.635 ± 0.018
457.6 K, w1 = 0.1	0.643 ± 0.018	0.643 ± 0.018	0.65 ± 0.018	0.665 ± 0.02
463.1 K, w1 = 0.3	0.582 ± 0.016	0.582 ± 0.016	0.586 ± 0.017	0.599 ± 0.017
481.3 K, w1 = 0.2	–	–	0.609 ± 0.017	0.623 ± 0.018
488.2 K, w1 = 0.1	–	–	0.628 ± 0.018	0.65 ± 0.02
494.2 K, w1 = 0.3	–	–	0.564 ± 0.016	0.579 ± 0.017
516.3 K, w1 = 0.3	–	–	0.542 ± 0.015	0.562 ± 0.017
519.3 K, w1 = 0.1	–	–	0.598 ± 0.017	0.622 ± 0.02
520.6 K, w1 = 0.2	–	–	0.575 ± 0.016	0.592 ± 0.018
539.7 K, w1 = 0.3	–	–	0.511 ± 0.015	0.538 ± 0.018
543.2 K, w1 = 0.1	–	–	0.569 ± 0.016	0.597 ± 0.019
547.6 K, w1 = 0.2	–	–	0.539 ± 0.015	0.564 ± 0.018
571.3 K, w1 = 0.2	–	–	0.501 ± 0.015	0.534 ± 0.019
571.9 K, w1 = 0.1	–	–	0.522 ± 0.015	0.55 ± 0.019
575.6 K, w1 = 0.3	–	–	0.455 ± 0.014	0.496 ± 0.022

[Br-].[Na+] [sodium bromide] + O
thermal conductivity [W/m/K]
Settings	100 kPa	2000 kPa	10000 kPa	40000 kPa
294.3 K, w1 = 0.1	0.58 ± 0.016	0.58 ± 0.016	0.586 ± 0.016	0.596 ± 0.017
294.7 K, w1 = 0.38	0.504 ± 0.014	0.504 ± 0.014	0.512 ± 0.014	0.525 ± 0.015
296 K, w1 = 0.2	0.56 ± 0.016	0.56 ± 0.016	0.565 ± 0.016	0.575 ± 0.016
297.2 K, w1 = 0.3	0.537 ± 0.015	0.537 ± 0.015	0.541 ± 0.015	0.55 ± 0.016
319.6 K, w1 = 0.38	0.531 ± 0.015	0.531 ± 0.015	0.536 ± 0.015	0.549 ± 0.015
319.9 K, w1 = 0.2	0.595 ± 0.017	0.595 ± 0.017	0.599 ± 0.017	0.609 ± 0.017
321.7 K, w1 = 0.1	0.618 ± 0.017	0.618 ± 0.017	0.624 ± 0.018	0.635 ± 0.018
323.9 K, w1 = 0.3	0.573 ± 0.016	0.573 ± 0.016	0.578 ± 0.016	0.587 ± 0.017
347.2 K, w1 = 0.38	0.56 ± 0.016	0.56 ± 0.016	0.565 ± 0.016	0.578 ± 0.016
350.2 K, w1 = 0.2	0.624 ± 0.018	0.624 ± 0.018	0.628 ± 0.018	0.639 ± 0.018
354.2 K, w1 = 0.1	0.648 ± 0.018	0.648 ± 0.018	0.653 ± 0.018	0.664 ± 0.019
357.7 K, w1 = 0.3	0.601 ± 0.017	0.601 ± 0.017	0.608 ± 0.017	0.617 ± 0.017
374.5 K, w1 = 0.38	0.58 ± 0.016	0.58 ± 0.016	0.589 ± 0.017	0.603 ± 0.017
377.9 K, w1 = 0.2	0.637 ± 0.018	0.637 ± 0.018	0.642 ± 0.018	0.653 ± 0.018
378.6 K, w1 = 0.1	0.659 ± 0.019	0.659 ± 0.019	0.663 ± 0.019	0.674 ± 0.019
380.2 K, w1 = 0.3	0.61 ± 0.017	0.61 ± 0.017	0.617 ± 0.017	0.627 ± 0.018
396.5 K, w1 = 0.2	0.643 ± 0.018	0.643 ± 0.018	0.648 ± 0.018	0.659 ± 0.019
398.7 K, w1 = 0.38	0.585 ± 0.016	0.585 ± 0.016	0.593 ± 0.017	0.609 ± 0.017
399.2 K, w1 = 0.1	0.664 ± 0.019	0.664 ± 0.019	0.669 ± 0.019	0.679 ± 0.019
401 K, w1 = 0.3	0.615 ± 0.017	0.615 ± 0.017	0.623 ± 0.018	0.633 ± 0.018
424.5 K, w1 = 0.38	0.585 ± 0.016	0.585 ± 0.016	0.593 ± 0.017	0.609 ± 0.017
426.4 K, w1 = 0.3	0.614 ± 0.017	0.614 ± 0.017	0.624 ± 0.018	0.637 ± 0.018
427.5 K, w1 = 0.1	0.664 ± 0.019	0.664 ± 0.019	0.671 ± 0.019	0.682 ± 0.019
429.2 K, w1 = 0.2	0.643 ± 0.018	0.643 ± 0.018	0.649 ± 0.018	0.659 ± 0.019
450.6 K, w1 = 0.2	0.632 ± 0.018	0.632 ± 0.018	0.638 ± 0.018	0.652 ± 0.018
453.7 K, w1 = 0.1	0.652 ± 0.018	0.652 ± 0.018	0.659 ± 0.019	0.672 ± 0.019
455 K, w1 = 0.3	0.6 ± 0.017	0.6 ± 0.017	0.608 ± 0.017	0.621 ± 0.017
456.7 K, w1 = 0.38	0.572 ± 0.016	0.572 ± 0.016	0.583 ± 0.016	0.6 ± 0.017
483.2 K, w1 = 0.2	–	–	0.618 ± 0.017	0.634 ± 0.018
483.2 K, w1 = 0.38	–	–	0.569 ± 0.016	0.59 ± 0.017
486.2 K, w1 = 0.1	–	–	0.639 ± 0.018	0.66 ± 0.019
515.3 K, w1 = 0.1	–	–	0.611 ± 0.017	0.634 ± 0.018
515.7 K, w1 = 0.38	–	–	0.535 ± 0.015	0.565 ± 0.016
519.4 K, w1 = 0.2	–	–	0.583 ± 0.016	0.601 ± 0.017
541.3 K, w1 = 0.38	–	–	0.504 ± 0.014	0.539 ± 0.015
542.7 K, w1 = 0.1	–	–	0.576 ± 0.016	0.604 ± 0.017
547.6 K, w1 = 0.2	–	–	0.546 ± 0.015	0.571 ± 0.016
576.2 K, w1 = 0.2	–	–	0.504 ± 0.014	0.535 ± 0.015
576.5 K, w1 = 0.38	–	–	0.454 ± 0.013	0.494 ± 0.014
577.3 K, w1 = 0.1	–	–	0.525 ± 0.015	0.566 ± 0.016

Reference: the NIST ThermoML archive (doi:10.1021/je049814b)
